ChEMBL document CHEMBL5131541, “Structural Feature Analyzation Strategies toward Discovery of Orally Bioavailable PROTACs of Bruton's Tyrosine Kinase for the Treatment of Lymphoma” (J Med Chem, 2022)
One block for each compound: values may come before it. The source made the active and inactive calls. The rule behind the calls is not given here.

Legend:
[1] = target: T1, Tyrosine-protein kinase BTK (Homo sapiens, UniProt Q06187); experiment: Induction of BTK degradation in human MINO cells incubated for 24 hrs by Western blot; assay type: cell-based; details: dose 1-1000 nM, DDE = dose-dependent effect
[2] = target: T1, Tyrosine-protein kinase BTK; experiment: Inhibition of BTK (unknown origin)
[3] = target: T1, Tyrosine-protein kinase BTK; experiment: Induction of BTK degradation in human MINO cells at 1000 nM incubated for 24 hrs by Western blot; assay type: cell-based
[4] = system: HEK293; experiment: Induction of BTK C481 mutant degradation in human HEK293 cells incubated for 24 hrs by Western blot analysis; assay type: cell-based; details: dose 1-1000 nM, DDE = dose-dependent effect
[5] = target: T1, Tyrosine-protein kinase BTK; experiment: Induction of BTK degradation in human MINO cells at 0.1 to 1000 nM incubated for 8 hrs by Western blot analysis relative to control; assay type: cell-based; details: dose 0.1-1000 nM
[6] = system: TMD8; experiment: cells; details: Homo sapiens
[7] = AUC (0 to infinity) in ICR mouse at 100 mg/kg, po measured upto 48 hrs by LC/MS analysis; assay type: ADME, organism-based; set-up: time < 48 hrs, dose 100 mg/kg, route po; details: in vivo
[8] = Clearance in ICR mouse at 2 mg/kg, iv measured upto 48 hrs by LC/MS analysis; assay type: ADME, organism-based; details: in vivo
[9] = target: Tyrosine-protein kinase BTK (Mus musculus) (UniProt P35991); experiment: In vivo induction of BTK degradation in ICR mouse monocytes assessed as protein remaining at 100 mg/kg, po after 6 hrs by Western blot analysis relative to control; assay type: functional, organism-based
[10] = system: HEK293; experiment: Induction of BTK T316 mutant degradation in human HEK293 cells incubated for 24 hrs by Western blot analysis; assay type: cell-based; details: dose 1-1000 nM, DDE = dose-dependent effect
[11] = Cmax in Sprague-Dawley rat at 5 to 10 mg/kg, po administered as cassette dose measured upto 24 hrs by LC-MS analysis; assay type: ADME, organism-based; set-up: time < 24 hrs, route po; details: in vivo, dose 5-10 mg/kg
[12] = AUC (0 to t) in ICR mouse at 100 mg/kg, po measured upto 48 hrs by LC/MS analysis; assay type: ADME, organism-based; set-up: time < 48 hrs, dose 100 mg/kg, route po; details: in vivo
[13] = target: T1, Tyrosine-protein kinase BTK; experiment: Induction of BTK degradation in human MINO cells assessed as reduction in PLCgamma-2 phosphorylation incubated for 24 hrs by Western blot analysis; assay type: cell-based; details: dose 1-200 nM, DDE = dose-dependent effect
[14] = system: JeKo-1; experiment: cells; details: Homo sapiens
[15] = system: OCI-Ly10; experiment: Antitumor activity against human OCILY10 cells xenografted in SCID mouse assessed as tumor growth inhibition at 10 mg/kg, po bid measured after 17 days relative to control; assay type: functional; set-up: scale not given: the % may be the effect or the level left; details: time 17 day
[16] = Cmax in ICR mouse at 100 mg/kg, po measured upto 48 hrs by LC/MS analysis; assay type: ADME, organism-based; set-up: dose 100 mg/kg, time < 48 hrs, route po; details: in vivo
[17] = target: T1, Tyrosine-protein kinase BTK; experiment: Induction of BTK degradation in human MINO cells incubated for 24 hrs by Western blot based densitometry analysis; assay type: cell-based
[18] = Tmax in Sprague-Dawley rat at 5 to 10 mg/kg, po administered as cassette dose measured upto 24 hrs by LC-MS analysis; assay type: ADME, organism-based; details: in vivo, dose 5-10 mg/kg
[19] = Half life in ICR mouse at 100 mg/kg, po measured upto 48 hrs by LC/MS analysis; assay type: ADME, organism-based; details: in vivo
[20] = MRT in ICR mouse at 2 mg/kg, iv measured upto 48 hrs by LC/MS analysis; assay type: ADME, organism-based; details: in vivo
[21] = Tmax in ICR mouse at 100 mg/kg, po measured upto 48 hrs by LC/MS analysis; assay type: ADME, organism-based; details: in vivo
[22] = system: JeKo-1; experiment: cells; details: Homo sapiens; remark: listed apart in the source
[23] = AUC (0 to t) in Sprague-Dawley rat at 5 to 10 mg/kg, po administered as cassette dose measured upto 24 hrs by LC-MS analysis; assay type: ADME, organism-based; set-up: time < 24 hrs, route po; details: in vivo, dose 5-10 mg/kg
[24] = target: T1, Tyrosine-protein kinase BTK; experiment: Induction of BTK degradation in human MINO cells assessed as reduction in NFkappaB phosphorylation incubated for 24 hrs by Western blot analysis; assay type: cell-based; details: dose 1-200 nM, DDE = dose-dependent effect
[25] = Half life in Sprague-Dawley rat at 5 to 10 mg/kg, po administered as cassette dose measured upto 24 hrs by LC-MS analysis; assay type: ADME, organism-based; details: in vivo, dose 5-10 mg/kg
[26] = Oral bioavailability in ICR mouse at 100 mg/kg measured upto 48 hrs by LC/MS analysis; assay type: ADME, organism-based; details: in vivo
[27] = target: Tyrosine-protein kinase BTK (Mus musculus) (UniProt P35991); experiment: In vivo induction of BTK degradation in ICR mouse monocytes assessed as protein remaining at 100 mg/kg, po after 24 hrs by Western blot analysis relative to control; assay type: functional, organism-based; details: Monocyte
[28] = target: T1, Tyrosine-protein kinase BTK; experiment: Induction of BTK degradation in human MINO cells assessed as maximum degradation incubated for 24 hrs by Western blot based densitometry analysis relative to control; assay type: cell-based
[29] = system: OCI-Ly10; experiment: Antitumor activity against human OCILY10 cells xenografted in SCID mouse assessed as tumor growth inhibition at 30 mg/kg, po bid measured after 17 days relative to control; assay type: functional; set-up: scale not given: the % may be the effect or the level left; details: time 17 day
[30] = target: T1, Tyrosine-protein kinase BTK; experiment: Induction of BTK degradation in human MINO cells at 0.1 to 1000 nM incubated for 2 hrs by Western blot analysis; assay type: cell-based; details: dose 0.1-1000 nM
[31] = system: OCI-Ly10; experiment: cells; details: Homo sapiens
[32] = target: Proto-oncogene tyrosine-protein kinase Src (Homo sapiens) (UniProt P12931); experiment: Induction of c-SRC tyrosine kinase degradation in human MINO cells at 100 nM measured after 8 hrs by proteomic analysis; assay type: cell-based
[33] = Toxicity in SCID mouse xenografted with OCILY10 cells assessed as effect on body weight at 10 to 30 mg/kg, po bid measured after 17 days; assay type: organism-based; details: in vivo, 408 h, dose 10-30 mg/kg, time 17 day
[34] = Dose normalized AUC (0 to t) in Sprague-Dawley rat at 5 to 10 mg/kg, po administered as cassette dose measured upto 24 hrs by LC-MS analysis; assay type: ADME, organism-based; details: in vivo, dose 5-10 mg/kg
[35] = system: Tyrosine-protein kinase BTK (Homo sapiens), Q06187 [C481S]; experiment: Inhibition of BTK C481S mutant (unknown origin)
[36] = Volume of distribution at steady state in ICR mouse at 2 mg/kg, iv measured upto 48 hrs by LC/MS analysis; assay type: ADME, organism-based; details: in vivo, read-out: Vdss
[37] = target: T1, Tyrosine-protein kinase BTK; experiment: Induction of BTK degradation in human MINO cells at 100 nM measured after 8 hrs by proteomic analysis; assay type: cell-based
[38] = Induction of leukocyte c-SRC kinase degradation in human MINO cells at 100 nM measured after 8 hrs by proteomic analysis

T1 sequence (Q06187 whole entry): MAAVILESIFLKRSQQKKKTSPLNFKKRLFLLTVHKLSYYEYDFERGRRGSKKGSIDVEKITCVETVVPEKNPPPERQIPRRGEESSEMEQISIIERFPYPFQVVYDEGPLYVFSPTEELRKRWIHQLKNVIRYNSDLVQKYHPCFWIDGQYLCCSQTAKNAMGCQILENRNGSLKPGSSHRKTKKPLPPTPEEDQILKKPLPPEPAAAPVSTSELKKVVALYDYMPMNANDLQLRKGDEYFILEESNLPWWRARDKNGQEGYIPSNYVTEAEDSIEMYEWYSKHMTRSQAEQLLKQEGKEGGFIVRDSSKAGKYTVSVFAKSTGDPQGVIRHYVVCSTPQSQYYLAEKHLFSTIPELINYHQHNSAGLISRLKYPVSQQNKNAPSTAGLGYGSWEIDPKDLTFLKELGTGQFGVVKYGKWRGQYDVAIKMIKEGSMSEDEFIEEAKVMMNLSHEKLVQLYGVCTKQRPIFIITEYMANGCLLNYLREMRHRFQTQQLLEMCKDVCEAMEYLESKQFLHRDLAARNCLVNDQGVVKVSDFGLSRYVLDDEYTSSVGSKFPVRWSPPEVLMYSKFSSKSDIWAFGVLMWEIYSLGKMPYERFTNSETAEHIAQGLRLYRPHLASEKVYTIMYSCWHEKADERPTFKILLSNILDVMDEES
Tyrosine-protein kinase BTK (Mus musculus), sequence (P35991 whole entry): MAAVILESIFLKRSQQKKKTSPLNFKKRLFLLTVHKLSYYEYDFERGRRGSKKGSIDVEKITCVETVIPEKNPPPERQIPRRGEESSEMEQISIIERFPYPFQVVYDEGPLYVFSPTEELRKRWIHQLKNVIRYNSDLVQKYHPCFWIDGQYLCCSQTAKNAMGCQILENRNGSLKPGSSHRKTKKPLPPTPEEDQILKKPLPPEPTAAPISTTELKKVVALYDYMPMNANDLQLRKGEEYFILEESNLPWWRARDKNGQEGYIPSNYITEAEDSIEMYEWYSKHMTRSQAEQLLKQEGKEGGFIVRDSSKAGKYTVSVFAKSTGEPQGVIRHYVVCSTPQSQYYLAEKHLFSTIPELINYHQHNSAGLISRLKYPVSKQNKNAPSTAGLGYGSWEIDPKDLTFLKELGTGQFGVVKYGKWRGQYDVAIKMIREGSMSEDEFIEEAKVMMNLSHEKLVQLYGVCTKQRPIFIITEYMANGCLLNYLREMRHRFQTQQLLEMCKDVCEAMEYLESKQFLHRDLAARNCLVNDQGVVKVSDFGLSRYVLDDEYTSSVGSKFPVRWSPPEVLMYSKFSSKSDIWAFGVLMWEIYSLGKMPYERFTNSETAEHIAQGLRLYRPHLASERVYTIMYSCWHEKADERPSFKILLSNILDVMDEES
Tyrosine-protein kinase BTK (Homo sapiens), Q06187 [C481S], sequence (Q06187 whole entry C481S): as the sequence (Q06187 whole entry) above, with C481S counted along it
Proto-oncogene tyrosine-protein kinase Src (Homo sapiens), sequence (P12931 2-536 limits assumed): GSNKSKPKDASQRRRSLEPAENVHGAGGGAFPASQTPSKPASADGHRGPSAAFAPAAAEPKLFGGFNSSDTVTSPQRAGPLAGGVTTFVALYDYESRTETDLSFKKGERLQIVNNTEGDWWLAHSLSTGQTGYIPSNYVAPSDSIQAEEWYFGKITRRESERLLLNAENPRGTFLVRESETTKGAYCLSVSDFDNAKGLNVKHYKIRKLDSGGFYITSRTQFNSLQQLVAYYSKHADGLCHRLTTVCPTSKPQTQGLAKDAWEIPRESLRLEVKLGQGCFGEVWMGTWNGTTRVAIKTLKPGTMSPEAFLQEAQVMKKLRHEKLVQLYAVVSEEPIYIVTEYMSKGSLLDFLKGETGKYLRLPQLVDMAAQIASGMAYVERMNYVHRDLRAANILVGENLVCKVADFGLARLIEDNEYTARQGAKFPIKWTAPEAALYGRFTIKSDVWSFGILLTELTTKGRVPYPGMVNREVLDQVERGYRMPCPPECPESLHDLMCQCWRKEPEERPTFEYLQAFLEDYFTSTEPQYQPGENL

Activity [1]: Dde | IC50 [2]: 9 nM | Activity [3]: > 50%
Structure (SMILES): Nc1ncnc2c1c(-c1ccc(Oc3ccccc3)cc1)nn2[C@@H]1CCCN(C(=O)CCCC(=O)NCC#CCN2CCN(CC#Cc3ccc4c(c3)CN(C3CCC(=O)NC3=O)C4=O)CC2)C1 (stereo not given in full)

Activity [5]: 91% | IC50 [6]: 4.7 nM | AUC(0-inf) [7]: 17100 ng·h/mL | Activity [1]: Dde | clearance [8]: 11.8 mL/min/kg | Activity [9]: Active | Cmax [11]: 16 ng/mL | AUC(0-t) at 48 h [12]: 16900 ng·h/mL | Activity [13]: Dde | IC50 [14]: 105 nM | Cmax [16]: 3090 ng/mL | DC50 [17]: 5.8 nM | Tmax [18]: 0.7 h | half-life [19]: 1 h | MRT [20]: 4.5 h | Tmax [21]: 8.3 h | IC50 [22]: 708 nM | AUC(0-t) at 24 h [23]: 83 ng·h/mL | Activity [24]: Dde | half-life [25]: 12.7 h | bioavailability [26]: 12% | IC50 [2]: 9 nM | Activity [27]: 24% | Emax [28]: 96% | Activity [30]: Active | IC50 [31]: 5.9 nM | Activity [32]: Active | AUCt/dose [34]: 8 ng·h/mL/mg | inhibition [35]: Active | Vd [36]: 3.1 L/kg | Activity [37]: Active | Activity [38]: Active
Structure (SMILES): Nc1ncnc2c1c(-c1ccc(Oc3ccccc3)cc1)nn2C1CCN(C2CCN(CC#Cc3ccc4c(c3)CN(C3CCC(=O)NC3=O)C4=O)CC2)CC1 (stereo not given)
Activity [4]: Dde | Activity [10]: Dde | Activity [15]: 50.9% | Activity [29]: 96.9% | Activity [33]: Non-Toxic
